# Biological target: T1, F508del/F508del CFTR (Homo sapiens, UniProt P13569, DEL508-508)
# T1 construct: cells isolated from CF patients with the homozygous mutation; endogenous in cells; host or cells: primary human bronchial epithelial (hBE) cells from CF patients homozygous for F508del
# Assay: Trans-Epithelial Current Clamp (TECC) assay using primary human bronchial epithelial cells
# Assay type: cell-based
# Settings: maximum percent activity relative to positive control (co-corrector 0.15 μM + potentiator 0.45 μM = 100%); primary hBE cells F508del/F508del
# Summary of the method: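 Readout is the equivalent CFTR current (IEQ, from offset-corrected VT and RT) plus AUC from forskolin peak to bumetanide addition, recorded on TECC-24 at 36.5° C. Beforehand, homozygous F508del hBE cultures received correctors with co-corrector and potentiator basolaterally for 18-24 h at 37° C.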
# T1 sequence (P13569 with tags, fused parts or gaps DEL508-508): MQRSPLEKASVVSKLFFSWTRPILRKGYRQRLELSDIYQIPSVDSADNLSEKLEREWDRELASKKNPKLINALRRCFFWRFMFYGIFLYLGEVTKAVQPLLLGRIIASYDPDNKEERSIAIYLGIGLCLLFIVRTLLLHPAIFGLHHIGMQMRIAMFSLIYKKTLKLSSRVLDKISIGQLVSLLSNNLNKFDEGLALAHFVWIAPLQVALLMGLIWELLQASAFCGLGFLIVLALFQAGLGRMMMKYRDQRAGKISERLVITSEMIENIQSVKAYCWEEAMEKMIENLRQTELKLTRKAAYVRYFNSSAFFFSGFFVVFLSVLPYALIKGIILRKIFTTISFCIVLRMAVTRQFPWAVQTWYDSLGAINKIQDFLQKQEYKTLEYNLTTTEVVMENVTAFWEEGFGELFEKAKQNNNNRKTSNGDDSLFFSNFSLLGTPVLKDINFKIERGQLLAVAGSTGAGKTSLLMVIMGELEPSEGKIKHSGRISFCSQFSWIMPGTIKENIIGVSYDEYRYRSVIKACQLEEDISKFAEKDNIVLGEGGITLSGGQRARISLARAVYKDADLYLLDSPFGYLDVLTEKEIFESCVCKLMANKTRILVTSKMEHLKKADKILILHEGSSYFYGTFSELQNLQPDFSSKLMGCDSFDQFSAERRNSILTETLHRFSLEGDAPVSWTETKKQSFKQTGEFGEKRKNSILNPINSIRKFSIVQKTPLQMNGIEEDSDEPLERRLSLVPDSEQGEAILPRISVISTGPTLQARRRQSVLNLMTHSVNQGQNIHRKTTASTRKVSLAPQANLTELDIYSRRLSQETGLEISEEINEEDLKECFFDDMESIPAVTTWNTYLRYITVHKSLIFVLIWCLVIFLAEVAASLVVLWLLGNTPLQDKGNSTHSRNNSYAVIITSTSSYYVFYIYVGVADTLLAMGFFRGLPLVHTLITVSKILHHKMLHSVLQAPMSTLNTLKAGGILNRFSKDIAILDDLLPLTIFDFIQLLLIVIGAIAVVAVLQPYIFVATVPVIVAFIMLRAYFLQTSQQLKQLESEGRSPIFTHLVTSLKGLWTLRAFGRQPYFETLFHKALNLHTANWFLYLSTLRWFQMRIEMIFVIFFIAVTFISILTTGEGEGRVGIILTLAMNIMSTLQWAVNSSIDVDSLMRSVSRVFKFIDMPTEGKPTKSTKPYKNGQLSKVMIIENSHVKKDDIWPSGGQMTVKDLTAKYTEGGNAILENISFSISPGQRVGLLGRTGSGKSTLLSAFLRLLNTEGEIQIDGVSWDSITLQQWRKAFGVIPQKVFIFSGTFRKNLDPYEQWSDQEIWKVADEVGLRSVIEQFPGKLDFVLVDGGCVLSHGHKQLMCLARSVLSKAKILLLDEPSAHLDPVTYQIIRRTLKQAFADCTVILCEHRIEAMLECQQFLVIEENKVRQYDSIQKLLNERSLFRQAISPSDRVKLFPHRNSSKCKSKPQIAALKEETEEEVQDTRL
row,SMILES,Emax (% Dual)
1,"COc1cccc([C@@H]2C[C@]2(C(=O)NS(=O)(=O)c2cccc3nc(C)ccc23)c2cc(C)ccc2OC)c1 (single isomer, unassigned) [Example 27]",275 % Dual
2,"COc1ccc(C)cc1[C@]1(C(=O)NS(=O)(=O)c2cccc3nc(C)ccc23)C[C@@H]1c1ccccc1C(F)(F)F (single isomer, unassigned) [Example 30]",313 % Dual
3,"COc1ccc(C)cc1[C@@]1(C(=O)NS(=O)(=O)c2cccc3nc(C)ccc23)C[C@H]1c1ccccc1C(F)(F)F (single isomer, unassigned) [Example 31]",307 % Dual

# More lines, now with the values ahead:
row,Emax (% Dual),SMILES
1,304 % Dual,"COc1cccc([C@H]2C[C@@]2(C(=O)NS(=O)(=O)c2cccc3nc(C)ccc23)c2cc(C)ccc2OC)c1 (single isomer, unassigned) [Example 28]"
2,152 % Dual,"COc1ncc([C@@H]2C[C@]2(C(=O)NS(=O)(=O)c2cccc3nc(C)ccc23)c2cc(C)ccc2OC)cn1 (single isomer, unassigned) [Example 37]"
3,202 % Dual,"COc1ncc([C@H]2C[C@@]2(C(=O)NS(=O)(=O)c2cccc3nc(C)ccc23)c2cc(C)ccc2OC)cn1 (single isomer, unassigned) [Example 38]"
4,179 % Dual,"COc1ccc(C)cc1[C@@]1(C(=O)NS(=O)(=O)c2cccc3nc(C)ccc23)C[C@H]1c1cncc(C)n1 (single isomer, unassigned) [Example 45]"

# Same assay, conditions: primary hBE cells homozygous F508del/F508del; test C2 corrector with co-corrector and potentiator, 18-24 hours at 37° C.; equivalent CFTR current (IEQ)/AUC
row,SMILES,EC50
1,"COc1cccc([C@@H]2C[C@]2(C(=O)NS(=O)(=O)c2cccc3nc(C)ccc23)c2cc(C)ccc2OC)c1 (single isomer, unassigned) [Example 27]",15.7 nM
2,"COc1ccc(C)cc1[C@]1(C(=O)NS(=O)(=O)c2cccc3nc(C)ccc23)C[C@@H]1c1ccccc1C(F)(F)F (single isomer, unassigned) [Example 30]",46.6 nM
3,"COc1ccc(C)cc1[C@@]1(C(=O)NS(=O)(=O)c2cccc3nc(C)ccc23)C[C@H]1c1ccccc1C(F)(F)F (single isomer, unassigned) [Example 31]",6.2 nM

# Results, then the compound that gave them:
row,EC50,SMILES
1,2.6 nM,"COc1cccc([C@H]2C[C@@]2(C(=O)NS(=O)(=O)c2cccc3nc(C)ccc23)c2cc(C)ccc2OC)c1 (single isomer, unassigned) [Example 28]"
2,42 nM,"COc1ncc([C@@H]2C[C@]2(C(=O)NS(=O)(=O)c2cccc3nc(C)ccc23)c2cc(C)ccc2OC)cn1 (single isomer, unassigned) [Example 37]"
3,219 nM,"COc1ncc([C@H]2C[C@@]2(C(=O)NS(=O)(=O)c2cccc3nc(C)ccc23)c2cc(C)ccc2OC)cn1 (single isomer, unassigned) [Example 38]"
4,> 300 nM,"COc1ccc(C)cc1[C@@]1(C(=O)NS(=O)(=O)c2cccc3nc(C)ccc23)C[C@H]1c1cncc(C)n1 (single isomer, unassigned) [Example 45]"

# Biological target: T2, F508delCFTR (Homo sapiens, UniProt P13569, DEL508-508)
# T2 construct: expressed in transfected cells; host or cells: CFBE41o- human lung-derived epithelial cell line, doxycycline-inducible expression
# T2 sequence (P13569 with tags, fused parts or gaps DEL508-508): as above
# Assay: Cell Surface Expression-Horse Radish Peroxidase (CSE-HRP) assay in CFBE41o-F508delCFTR-HRP cells
# Assay type: cell-based
# Settings: with co-corrector (2 μM); CFBE41o-F508delCFTR-HRP cells, 18-24 hours at 33° C., luminescence; read-out: EC50 (with co-corrector)
# Summary of the method: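 Test compounds were tested alone or alongside a co-corrector (2 μM), 8-point 3-fold series from 20 or 30 μM, for 18–24 h at 33 °C on doxycycline-induced CFBE41o-F508delCFTR-HRP cells. After washing, luminol luminescence reported cell-surface HRP-tagged CFTR, normalized to the positive control (% activity). EC50 was fitted with a variable Hill slope sigmoid from triplicate plates; Z′ >0.5 required.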
row,SMILES,EC50
1,"COc1cccc([C@@H]2C[C@]2(C(=O)NS(=O)(=O)c2cccc3nc(C)ccc23)c2cc(C)ccc2OC)c1 (single isomer, unassigned) [Example 27]",429 nM
2,"COc1ccc(C)cc1[C@]1(C(=O)NS(=O)(=O)c2cccc3nc(C)ccc23)C[C@@H]1c1ccccc1C(F)(F)F (single isomer, unassigned) [Example 30]",260 nM
3,"COc1ccc(C)cc1[C@@]1(C(=O)NS(=O)(=O)c2cccc3nc(C)ccc23)C[C@H]1c1ccccc1C(F)(F)F (single isomer, unassigned) [Example 31]",163 nM

# Results, then the compound that gave them:
row,EC50,SMILES
1,417 nM,"COc1cccc([C@H]2C[C@@]2(C(=O)NS(=O)(=O)c2cccc3nc(C)ccc23)c2cc(C)ccc2OC)c1 (single isomer, unassigned) [Example 28]"
2,3680 nM,"COc1ncc([C@@H]2C[C@]2(C(=O)NS(=O)(=O)c2cccc3nc(C)ccc23)c2cc(C)ccc2OC)cn1 (single isomer, unassigned) [Example 37]"
3,1810 nM,"COc1ncc([C@H]2C[C@@]2(C(=O)NS(=O)(=O)c2cccc3nc(C)ccc23)c2cc(C)ccc2OC)cn1 (single isomer, unassigned) [Example 38]"
4,4620 nM,"COc1ccc(C)cc1[C@@]1(C(=O)NS(=O)(=O)c2cccc3nc(C)ccc23)C[C@H]1c1cncc(C)n1 (single isomer, unassigned) [Example 45]"

# Same assay, conditions: with co-corrector (2 μM); normalized to on-plate positive control corrector (2 μM)
row,Maximum % activity (with co-corrector),SMILES
1,460%,"COc1ncc([C@@H]2C[C@]2(C(=O)NS(=O)(=O)c2cccc3nc(C)ccc23)c2cc(C)ccc2OC)cn1 (single isomer, unassigned) [Example 37]"
2,995%,"COc1ncc([C@H]2C[C@@]2(C(=O)NS(=O)(=O)c2cccc3nc(C)ccc23)c2cc(C)ccc2OC)cn1 (single isomer, unassigned) [Example 38]"
3,427%,"COc1ccc(C)cc1[C@@]1(C(=O)NS(=O)(=O)c2cccc3nc(C)ccc23)C[C@H]1c1cncc(C)n1 (single isomer, unassigned) [Example 45]"

# Same assay, conditions: without co-corrector; CFBE41o-F508delCFTR-HRP cells, 18-24 hours at 33° C., luminescence; read-out: EC50 (without co-corrector)
row,SMILES,EC50
1,"COc1cccc([C@@H]2C[C@]2(C(=O)NS(=O)(=O)c2cccc3nc(C)ccc23)c2cc(C)ccc2OC)c1 (single isomer, unassigned) [Example 27]",405 nM
2,"COc1ccc(C)cc1[C@]1(C(=O)NS(=O)(=O)c2cccc3nc(C)ccc23)C[C@@H]1c1ccccc1C(F)(F)F (single isomer, unassigned) [Example 30]",263 nM
3,"COc1ccc(C)cc1[C@@]1(C(=O)NS(=O)(=O)c2cccc3nc(C)ccc23)C[C@H]1c1ccccc1C(F)(F)F (single isomer, unassigned) [Example 31]",239 nM

# Second part, the compound after the results:
row,EC50,SMILES
1,951 nM,"COc1cccc([C@H]2C[C@@]2(C(=O)NS(=O)(=O)c2cccc3nc(C)ccc23)c2cc(C)ccc2OC)c1 (single isomer, unassigned) [Example 28]"
2,7260 nM,"COc1ncc([C@@H]2C[C@]2(C(=O)NS(=O)(=O)c2cccc3nc(C)ccc23)c2cc(C)ccc2OC)cn1 (single isomer, unassigned) [Example 37]"
3,3020 nM,"COc1ncc([C@H]2C[C@@]2(C(=O)NS(=O)(=O)c2cccc3nc(C)ccc23)c2cc(C)ccc2OC)cn1 (single isomer, unassigned) [Example 38]"
4,6150 nM,"COc1ccc(C)cc1[C@@]1(C(=O)NS(=O)(=O)c2cccc3nc(C)ccc23)C[C@H]1c1cncc(C)n1 (single isomer, unassigned) [Example 45]"

# Same assay, conditions: without co-corrector; normalized to on-plate positive control corrector (2 μM)
row,SMILES,Maximum % activity (without co-corrector)
1,"COc1cccc([C@@H]2C[C@]2(C(=O)NS(=O)(=O)c2cccc3nc(C)ccc23)c2cc(C)ccc2OC)c1 (single isomer, unassigned) [Example 27]",465%
2,"COc1ccc(C)cc1[C@]1(C(=O)NS(=O)(=O)c2cccc3nc(C)ccc23)C[C@@H]1c1ccccc1C(F)(F)F (single isomer, unassigned) [Example 30]",589%
3,"COc1ccc(C)cc1[C@@]1(C(=O)NS(=O)(=O)c2cccc3nc(C)ccc23)C[C@H]1c1ccccc1C(F)(F)F (single isomer, unassigned) [Example 31]",776%

# The remaining lines, values ahead:
row,Maximum % activity (without co-corrector),SMILES
1,113%,"COc1ncc([C@@H]2C[C@]2(C(=O)NS(=O)(=O)c2cccc3nc(C)ccc23)c2cc(C)ccc2OC)cn1 (single isomer, unassigned) [Example 37]"
2,419%,"COc1ncc([C@H]2C[C@@]2(C(=O)NS(=O)(=O)c2cccc3nc(C)ccc23)c2cc(C)ccc2OC)cn1 (single isomer, unassigned) [Example 38]"
3,128%,"COc1ccc(C)cc1[C@@]1(C(=O)NS(=O)(=O)c2cccc3nc(C)ccc23)C[C@H]1c1cncc(C)n1 (single isomer, unassigned) [Example 45]"

# — patent US20240043386A1, “Modulators of the Cystic Fibrosis Transmembrane Conductance Regulator Protein and Methods of Use” (AbbVie Global Enterprises Ltd., priority 2021, published 2024)
